For data set [1], the system named is retinal pigment epithelial cell death. The data set is described as follows: Sodium iodate (NaIO3) challenge study, duration of protection, fluorescein angiography lesion area. To be noted: rabbit.
Description: NaIO3 solution: • Challenge Article: NaIO3 • Administration Route: IV • Frequency of Administration: Day 4 (day 7 endpoint), 14 (day 17 endpoint), 28 (day 31 endpoint), 59 (day 61 endpoint), or 78 (day 81 endpoint (rechallenged group)). • Solution: 20 mg/ml in 0.9% Injectable Saline • Dose: 17 or 18 mg/kg body weight
Test System: • Species: Rabbit • Expected Age: Animals were between 3 and 4 months of age • Expected Body Range: Approximately 2.0 Kg, Identification Animals were individually • housed and identified via cage card and ear ID and/or ear tattoo. • Experimental History: Purpose-bred and experimentally naïve at the onset of the study
Intravitreal Injection: • On Day 0, eyes were anesthetized with proparacaine and pupils dilated with tropicamide. Animals were anesthetized with isoflurane vapors to effect. A few drops of Betadine were placed on the eye and then rinsed with ophthalmic eye wash. A clean speculum was placed in the eye (rinsed in Betadine and sterile saline) and the temporal sclera was marked with calipers 3.5 mm from the corneal border. […] In order to reduce the potential for reflux of the test article the needle remained in the vitreous for at least 10 seconds following injection. No reflux was noted on the dosing record.
Model Induction: • A 20 mg/ml solution of NaIO3 was prepared in 0.9% injectable saline aliquoted into 4 batches and frozen at −20° C. For Groups 1-8, 1 batch of NaIO3 was thawed prior to injection. Groups 9-10 were added after the Study was underway therefore a new solution of 20 mg/ml NaIO3 was prepared in 0.9% injectable saline and frozen at −20° C. and thawed prior to injection. Test article and NaIO3 were injected into the left ear.
Animals were weighed and anesthetized with isoflurane vapors to effect. The left ear was shaved and swabbed with 10% alcohol prior to injection. An indwelling catheter was placed in the left marginal ear vein and flushed with 0.9% injectable saline. […]
Data Analysis: • The area of RPE depigmentation is reported as a unitless value provided by the ImageJ software. […] The resulting area was then measured.
Data set [2] is described as follows: in vivo. As to conditions: rabbit.
Description: (§1) Body weights were measured and recorded prior to first dose, approximately weekly (for surviving animals through Week 12), and prior to euthanasia. […] Ophthalmic examinations were performed using the Hackett-McDonald Scoring System on Days 0, 7, 14, 28, 90, 97, 151, and 168. Pharmacokinetic analyses were performed on the vitreous humor concentration data.
(§2) Seven animals received a repeat IVT dose at 2 mg/mL (0.1 mg/eye) on Day 90.
(§3) Vitreous humor, retina, and choroid were collected on days 1, 7, 14, 28, 42, 61, 90, 97, 151, and 168. Eyes were enucleated, snap frozen using liquid nitrogen, and kept on dry ice or frozen at −80° C. until dissected for collection of aqueous humor, vitreous humor, retina, choroid, iris-ciliary body (ICB), and lens.
(§4) To homogenize ocular tissue samples, weighed amounts of control bovine vitreous humor, retina, and choroid were homogenized in USA scientific impact resistant microtubes containing 2.8 mm ceramic beads. Unknown rabbit vitreous humor, retina, and choroid samples were homogenized in USA scientific impact resistant microtubes containing 2.8 mm ceramic beads. Each vitreous humor sample was homogenized after the addition of 5000 microliters (uL) diluent (acetonitrile: water: 1 M hydrochloric acid (70:20:10, v/v/v). Retina tissues were homogenized after the addition of diluent (IPA:NH4OH (1000:1, v/v)) at a 1:5 ratio (parts tissue to parts diluent), and choroid samples were homogenized following addition of diluent at a 1:19 ratio. Tissues were homogenized at 5500 rpm for 3×30 second cycles with 20 second pauses between cycles until homogenized. Choroid went through two runs of homogenization, and retina and vitreous humor samples went through one run of homogenization.
(§5) Preparation of Standards, Unknowns, Blanks, and Blanks with Internal Standard for Vitreous Humor Analysis: • In a polypropylene tube, 10 uL of working calibration standard was added to 90 uL control blank vitreous humor. For blanks and blanks with internal standard, 100 uL of control blank bovine vitreous humor was added. Five hundred (500) uL of acetonitrile: water:1M hydrochloric acid (70:20:10, v/v/v) was added to each standard and 500 uL of acetonitrile: water:1M hydrochloric acid (70:20:10, v/v/v) was added to blanks. Standards and blanks were vortex mixed. One hundred (100) uL of each standard, blank or unknown vitreous humor sample homogenate was then aliquoted. One hundred (100) uL of IPA:NH4OH (1000:1, v/v) was added to each sample. The samples were vortex mixed for 1 minute, then centrifuged for 10 minutes at 4,000 rpm (4° C.). […] Fifty (50.0) uL of acetonitrile:water:1M hydrochloric acid (70:20:10, v/v/v) was added to blank without IS. Two hundred (200) uL of water was added. The samples were then mixed using a multichannel pipette, and supernatant transferred to an autosampler plate for analysis.
(§6) In a 96-well plate, 100 uL of control retina or choroid homogenate was added for calibration samples and unknowns. For blanks and blanks with internal standard, 100 uL of control bovine retina or choroid tissue homogenate was added. […] Twenty (20) uL acetonitrile:water:formic acid (25:75:0.1, v/v/v) was added to each blank without IS sample. Three-hundred (300) uL of IPA:NH4OH (1000:1, v/v) was added to each choroid or retina sample. The samples were then vortex mixed for 5 minutes. The samples were allowed to set for 15 minutes, vortex mixed for an additional minute, and centrifuged for 10 minutes at 4,000 rpm (4° C.).
(§7) Three-hundred-fifty (350) uL of each sample was then aliquoted to a 96-well plate. The samples were dried with nitrogen at 35° C.
The nature of data set [3]: Ocular tissue concentration of ONL1204 after intravitreal injection in rabbit eye (LC-MS/MS). As to conditions: 0.1 mg/eye.
Description: as §1, §2, §3, §4, §5, §6, §7
For data set [4] the following is noted: minipig, in vivo.
Description: Seven animals received a repeat IVT dose at 2 mg/mL (0.1 mg/eye) on Day 90. […] Vitreous humor, retina, and choroid were collected on days 1, 7, 14, 28, and 88.

Each structure is given as a SMILES string. Residues, ends and D or L forms follow the SMILES beside them.

As usually defined, the half-life is how long it takes for the measured level to halve. Lower therefore signals fast loss. As for `CC[C@H](C)[C@H](NC(=O)[C@H](Cc1ccc(O)cc1)NC(=O)[C@H](CC(N)=O)NC(=O)[C@@H](NC(=O)[C@H](C)NC(=O)CNC(=O)[C@H](CC(C)C)NC(=O)[C@H](Cc1ccc(O)cc1)NC(=O)[C@@H](NC(=O)[C@H](Cc1cnc[nH]1)NC(=O)[C@@H](N)Cc1cnc[nH]1)[C@@H](C)CC)C(C)C)C(=O)N[C@@H](Cc1ccc(O)cc1)C(N)=O` [ONL1204] (H-HHIYLGAVNYIY-NH2), in data set [1] (100 ug per eye IVT on Day 0, NaIO3 challenge Day 14), the “lesion size vs negative controls and vs 25 ug” value is recorded as “significantly smaller lesion size”. In addition, the “lesion size vs negative control animals and vs 25 ug” value in data set [1] (100 ug per eye IVT on Day 0, NaIO3 challenge Day 28) is listed as “significantly smaller lesion size”. Moreover, the “mean lesion size across challenge time points” value in data set [1] (25 or 100 ug per eye IVT on Day 0, NaIO3 challenge Days 4 to 59) is recorded as “substantive reduction”. Also, the half-life is 280 days in data set [2] and 279 days in data set [3] (vitreous humor, other: intravitreal injection). This compound showed a tissue level at time at 4032 h in data set [3] (retina) of 8.4 ng/g. Besides, the tissue level at time at 24 h in data set [3] (retina, Conc. of ONL1204 Retina, single IVT 0.1 mg/eye, Day 1, LLOQ 3.00 ng/g) was found to be 12.7 ng/g. The compound further had a tissue level at time at 168 h in data set [3] (retina, Conc. of ONL1204 Retina, single IVT 0.1 mg/eye, Day 7, LLOQ 3.00 ng/g) of 85.2 ng/g. Also, in data set [3] (retina, Conc. of ONL1204 Retina, single IVT 0.1 mg/eye, Day 14, LLOQ 3.00 ng/g), the tissue level at time at 336 h was 5.95 ng/g. In addition, the “detection in the vitreous humor across all time points analyzed” value in data set [4] is “detected in the vitreous humor across all time points analyzed”.

The values above are taken from patent US20240156898A1, “METHODS AND COMPOSITIONS FOR TREATING OCULAR DISORDERS AND DISEASES” (ONL Therapeutics, Inc., priority 2021, published 2024).
